Article PMC8159961, “Exploring protein hotspots by optimized fragment pharmacophores” (Nature Communications, 2021)
pIC50, pKi: −log10 of the molar value. Several values for one entry are separate records, joined by “and”; a condition that tells them apart may be missing. Equal entries are not always repeated. Where two headings read alike, the source gives them in different places.

Key:
[1] = target: T1, bovine factor Xa (Bos taurus, UniProt P00743); assay: Protease inhibitory assay, chromogenic substrate S-2222; format: biochemical; conditions: 1 = hit, 0 = no hit; screening at 200 µM
T1 construct: bovine factor Xa, Chromogenix, 2 nkat/mL; purchased Chromogenix

[2] = target: T2, human thrombin (Homo sapiens, UniProt P00734); assay: Protease inhibitory assay, chromogenic substrate S-2238; format: biochemical
T2 construct: human thrombin; purchased Sigma-Aldrich

[3] = target: T3, human 5-HT1A receptor (Homo sapiens, UniProt P08908); assay: GPCR radioligand binding assay, [3H]-8-OH-DPAT displacement, HEK293 membranes
T3 construct: expressed in transfected cells
T3 sequence (P08908 1-422): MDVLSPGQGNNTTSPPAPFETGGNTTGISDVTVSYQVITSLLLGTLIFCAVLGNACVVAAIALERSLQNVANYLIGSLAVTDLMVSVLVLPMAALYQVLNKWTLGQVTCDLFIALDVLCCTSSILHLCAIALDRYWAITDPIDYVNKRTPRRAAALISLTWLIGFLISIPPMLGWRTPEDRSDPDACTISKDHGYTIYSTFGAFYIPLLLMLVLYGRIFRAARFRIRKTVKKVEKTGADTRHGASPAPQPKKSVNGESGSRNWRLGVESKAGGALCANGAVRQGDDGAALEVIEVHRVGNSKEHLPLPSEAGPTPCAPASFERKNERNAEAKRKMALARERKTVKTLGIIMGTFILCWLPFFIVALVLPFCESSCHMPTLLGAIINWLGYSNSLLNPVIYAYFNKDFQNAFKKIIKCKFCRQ

[4] = target: T4, human 5-HT7b receptor (Homo sapiens, UniProt P34969); assay: GPCR radioligand binding assay, [3H]-5-CT displacement, HEK293 membranes
T4 construct: expressed in transfected cells

[5] = target: T5, human 5-HT6 receptor (Homo sapiens, UniProt P50406); assay: GPCR radioligand binding assay, [3H]-LSD displacement, HEK293 membranes
T5 construct: expressed in transfected cells

[6] = target: T6, recombinant SETD2 (Homo sapiens, UniProt Q9BYW2); assay: SETD2 Chemiluminescence assay (H3K36 tri-methylation); format: biochemical; conditions: for SETD2 signal normalised to positive control and internally to compound: nM], replicates
T6 construct: purchased BPS Bioscience 52060
T6 sequence (Q9BYW2 1418-1714 limits assumed): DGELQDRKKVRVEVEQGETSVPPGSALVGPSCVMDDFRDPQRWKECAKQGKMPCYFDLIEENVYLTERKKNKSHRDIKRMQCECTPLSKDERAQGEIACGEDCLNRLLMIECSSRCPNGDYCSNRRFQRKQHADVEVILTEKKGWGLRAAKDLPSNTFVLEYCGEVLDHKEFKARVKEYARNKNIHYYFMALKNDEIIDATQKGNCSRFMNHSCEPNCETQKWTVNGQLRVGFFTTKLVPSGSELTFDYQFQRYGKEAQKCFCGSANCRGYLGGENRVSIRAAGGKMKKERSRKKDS

[7] = system: MV4-11 leukemia cells; assay: Cell viability assay, CellTiter-Glo, 5 days; conditions: for normalized viability (0 = 0 % viability, 1 = 100 % viability): MV4-11, nM], replicates
[8] = system: MOLM-13 leukemia cells; assay: Cell viability assay, CellTiter-Glo, 5 days; conditions: for normalized viability (0 = 0 % viability, 1 = 100 % viability): MOLM-13, nM], replicates
[9] = 1 = hit, 0 = no hit, tested at 10 µM, hit = 50% or stronger inhibition

T4 sequence (P34969 1-432): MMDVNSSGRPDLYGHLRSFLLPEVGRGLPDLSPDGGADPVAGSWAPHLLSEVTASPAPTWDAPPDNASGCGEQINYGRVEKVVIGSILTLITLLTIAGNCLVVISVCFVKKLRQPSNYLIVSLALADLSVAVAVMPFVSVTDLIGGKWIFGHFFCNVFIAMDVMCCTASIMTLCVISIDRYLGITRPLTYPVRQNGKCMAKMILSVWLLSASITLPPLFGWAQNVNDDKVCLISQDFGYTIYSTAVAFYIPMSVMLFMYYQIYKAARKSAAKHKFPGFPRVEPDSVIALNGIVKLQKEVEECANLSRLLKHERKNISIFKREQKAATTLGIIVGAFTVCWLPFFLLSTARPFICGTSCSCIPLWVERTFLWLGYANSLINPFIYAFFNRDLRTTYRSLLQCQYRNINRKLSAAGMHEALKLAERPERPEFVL
T5 sequence (P50406 whole entry): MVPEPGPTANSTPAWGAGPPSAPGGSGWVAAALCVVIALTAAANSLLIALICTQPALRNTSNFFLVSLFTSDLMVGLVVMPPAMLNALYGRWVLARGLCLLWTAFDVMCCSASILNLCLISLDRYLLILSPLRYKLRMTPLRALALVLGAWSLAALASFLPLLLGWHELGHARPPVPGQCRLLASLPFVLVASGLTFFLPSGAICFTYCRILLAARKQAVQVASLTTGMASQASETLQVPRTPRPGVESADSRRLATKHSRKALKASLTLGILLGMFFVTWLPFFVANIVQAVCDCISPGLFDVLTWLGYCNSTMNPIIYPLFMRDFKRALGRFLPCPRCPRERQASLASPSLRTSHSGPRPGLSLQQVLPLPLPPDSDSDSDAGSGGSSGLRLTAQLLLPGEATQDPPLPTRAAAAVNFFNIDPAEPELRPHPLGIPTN
T1 sequence (P00743 234-492 limits assumed): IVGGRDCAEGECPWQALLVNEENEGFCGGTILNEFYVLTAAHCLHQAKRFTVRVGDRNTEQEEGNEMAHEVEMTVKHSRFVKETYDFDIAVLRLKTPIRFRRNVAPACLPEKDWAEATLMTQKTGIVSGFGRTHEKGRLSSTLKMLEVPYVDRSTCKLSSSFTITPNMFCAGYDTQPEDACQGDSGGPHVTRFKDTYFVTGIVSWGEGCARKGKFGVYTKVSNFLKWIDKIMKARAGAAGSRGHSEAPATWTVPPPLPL
T1 sequence (P00743 41-180 partner limits assumed): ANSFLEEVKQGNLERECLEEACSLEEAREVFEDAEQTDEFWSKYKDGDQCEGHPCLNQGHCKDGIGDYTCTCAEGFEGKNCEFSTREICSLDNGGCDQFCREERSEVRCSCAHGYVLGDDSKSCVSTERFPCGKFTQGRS

c1ccc2[nH]ccc2c1 [SX004]
experimental hit status, Factor Xa [1]: 0
experimental hit status, Thrombin ([2]; 1 = hit, 0 = no hit, screening at 200 µM): 0
experimental hit status, 5-HT1 [3, 9]: 0
inhibition at 10 µM ([3]; read-out: 5-HT1A % Inhibition by plate position): 0%
inhibition at 10 µM ([3]; read-out: %inh 5-HT1A average): -11%
inhibition at 10 µM ([3]; read-out: %inh 5-HT1A corrected*): 0%
inhibition at 10 µM ([3]; read-out: %inh 5-HT1A exp_1): -0.425%
inhibition at 10 µM ([3]; read-out: %inh 5-HT1A exp_2): -21%
experimental hit status, 5-HT7 [4, 9]: 0
inhibition at 10 µM ([4]; read-out: 5-HT7 % Inhibition by plate position): 0%
inhibition at 10 µM ([4]; read-out: %inh 5-HT7 average): -2.64%
inhibition at 10 µM ([4]; read-out: %inh 5-HT7 corrected*): 0%
inhibition at 10 µM ([4]; read-out: %inh 5-HT7 exp_1): 19%
inhibition at 10 µM ([4]; read-out: %inh 5-HT7 exp_2): -24%
experimental hit status, 5-HT6 [5, 9]: 0
inhibition at 10 µM ([5]; read-out: 5-HT6 % Inhibition by plate position): 16%
inhibition at 10 µM ([5]; read-out: %inh 5-HT6 average): 16%
inhibition at 10 µM ([5]; read-out: %inh 5-HT6 corrected*): 16%
inhibition at 10 µM ([5]; read-out: %inh 5-HT6 exp_1): 16%
inhibition at 10 µM ([5]; read-out: %inh 5-HT6 exp_2): 16%
experimental hit status, SETD2 ([6]; 1 = hit, 0 = no hit): 0

CC1CCc2sc(C(=O)O)cc2C1 (stereo not drawn) [SX045]
normalized viability (0 = 0 % viability, 1 = 100 % viability) ([7]; concentration 2.18 [log): 0.9962 and 1.163 and 0.9666
normalized viability (0 = 0 % viability, 1 = 100 % viability) ([7]; concentration 2.66 [log): 0.9943 and 0.9504 and 0.9572
normalized viability (0 = 0 % viability, 1 = 100 % viability) ([7]; concentration 3.14 [log): 0.9413 and 0.941 and 0.9817
normalized viability (0 = 0 % viability, 1 = 100 % viability) ([7]; concentration 3.61 [log): 0.7873 and 0.9285 and 0.9554
normalized viability (0 = 0 % viability, 1 = 100 % viability) ([7]; concentration 4.09 [log): 0.7566 and 0.9251 and 0.9854
normalized viability (0 = 0 % viability, 1 = 100 % viability) ([7]; concentration 4.57 [log): 0.732 and 0.9248 and 0.8741
normalized viability (0 = 0 % viability, 1 = 100 % viability) ([7]; concentration 5.05 [log): 0.7081 and 0.7223 and 0.7408
normalized viability (0 = 0 % viability, 1 = 100 % viability) ([7]; concentration 5.52 [log): 0.4531 and 0.4099 and 0.4328
normalized viability (0 = 0 % viability, 1 = 100 % viability) ([7]; concentration 6 [log): 0.0008148 and 0.0004041 and 0.01018
IC50 cell viability / anti-proliferative EC50 ([7]; MV4-11 cells, 5 days after treatment): 400 µM
pKi ([2]; plate layout, label = plate position, Cheng-Prusoff, Km 2.6 µM, read-out: Thrombin Ki): 4.19
normalized viability (0 = 0 % viability, 1 = 100 % viability) ([8]; concentration 2.18 [log): 1.039 and 0.9762 and 0.9421
normalized viability (0 = 0 % viability, 1 = 100 % viability) ([8]; concentration 2.66 [log): 1.004 and 0.9844 and 0.9162
normalized viability (0 = 0 % viability, 1 = 100 % viability) ([8]; concentration 3.14 [log): 0.9835 and 0.9812 and 0.9002
normalized viability (0 = 0 % viability, 1 = 100 % viability) ([8]; concentration 3.61 [log): 0.9836 and 0.9626 and 0.8884
normalized viability (0 = 0 % viability, 1 = 100 % viability) ([8]; concentration 4.09 [log): 0.9563 and 0.9463 and 0.9164
normalized viability (0 = 0 % viability, 1 = 100 % viability) ([8]; concentration 4.57 [log): 0.8812 and 0.9087 and 0.8366
normalized viability (0 = 0 % viability, 1 = 100 % viability) ([8]; concentration 5.05 [log): 0.7992 and 0.5481 and 0.7667
normalized viability (0 = 0 % viability, 1 = 100 % viability) ([8]; concentration 5.52 [log): 0.5003 and 0.4827 and 0.2594
normalized viability (0 = 0 % viability, 1 = 100 % viability) ([8]; concentration 6 [log): 0.05284 and 0.001062 and 0.1076
IC50 cell viability / anti-proliferative EC50 ([8]; MOLM-13 cells, 5 days after treatment): 333 µM
inhibition at 10 µM ([3]; 10 µM, read-out: 5-HT1A % Inhibition by plate position): 0%
inhibition at 10 µM ([3]; 5-HT1A, average of exp_1 and exp_2, read-out: %inh 5-HT1A average): -1%
inhibition at 10 µM ([3]; 5-HT1A, average, values below 0 and above 100% were set as 0 and 100, read-out: %inh 5-HT1A corrected*): 0%
inhibition at 10 µM ([3]; 5-HT1A, replicate exp_1, read-out: %inh 5-HT1A exp_1): -0.0944%
inhibition at 10 µM ([3]; 5-HT1A, replicate exp_2, read-out: %inh 5-HT1A exp_2): -2%
inhibition at 10 µM ([4]; 10 µM, read-out: 5-HT7 % Inhibition by plate position): 4.44%
inhibition at 10 µM ([4]; 5-HT7, average of exp_1 and exp_2, read-out: %inh 5-HT7 average): 4.44%
inhibition at 10 µM ([4]; 5-HT7, average, values below 0 and above 100% were set as 0 and 100, read-out: %inh 5-HT7 corrected*): 4.44%
inhibition at 10 µM ([4]; 5-HT7, replicate exp_1, read-out: %inh 5-HT7 exp_1): -4.73%
inhibition at 10 µM ([4]; 5-HT7, replicate exp_2, read-out: %inh 5-HT7 exp_2): 14%
inhibition at 10 µM ([5]; 10 µM, read-out: 5-HT6 % Inhibition by plate position): 45%
inhibition at 10 µM ([5]; 5-HT6, average of exp_1 and exp_2, read-out: %inh 5-HT6 average): 45%
inhibition at 10 µM ([5]; 5-HT6, average, values below 0 and above 100% were set as 0 and 100, read-out: %inh 5-HT6 corrected*): 45%
inhibition at 10 µM ([5]; 5-HT6, replicate exp_1, read-out: %inh 5-HT6 exp_1): 52%
inhibition at 10 µM ([5]; 5-HT6, replicate exp_2, read-out: %inh 5-HT6 exp_2): 38%
pIC50 ([6]; chemiluminescence-based enzymatic assay): 3.52
SETD2 signal normalised to positive control and internally to compound ([6]; fragment concentration 4.4 [log): 0.78 and 0.88
SETD2 signal normalised to positive control and internally to compound ([6]; fragment concentration 5 [log): 0.71 and 0.90
SETD2 signal normalised to positive control and internally to compound ([6]; fragment concentration 5.3 [log): 0.89 and 0.66
SETD2 signal normalised to positive control and internally to compound ([6]; fragment concentration 5.6 [log): 0.20 and 0.33
SETD2 signal normalised to positive control and internally to compound ([6]; fragment concentration 5.9 [log): 0.05 and 0.21
